# Source: US20240190843A1, “CRYSTALLINE FORM OF A SHP2 INHIBITOR” (Array BioPharma Inc., priority 2021, published 2024)
# Experiment: Comparative stability of stored solid samples (HPLC purity, PXRD, appearance after 7 days)
# Type: physicochemical
# Experimental: The chemical stability data using HPLC was evaluated on samples stored at several conditions as listed in Table 6 between free base hemihydrate Form 1 and amorphous form.
# HPLC Method • Column: LC\027 Agilent Poroshell 120 EC-C18 150×4.6 mm, 2.7 μm • Column Temperature: 40° C. • Autosampler Temperature: Ambient • UV wavelength: 220 nm • Injection Volume: 4.00 μL • Flow Rate: 1.5 mL/min • Mobile Phase A: 0.02% TFA in H2O • Mobile Phase B: 0.02% TFA in MeCN • Time (minutes) Solvent B [%] • 0 20 • 3 20 • 15 70 • 15.1 95 • 16 95 • 16.1 20 • 20.0 20
SMILES,HPLC purity (%) after 7 days (stored at 25° C./60% RH) [%],Observations after 7 days (stored at 25° C./60% RH),PXRD after 7 days (stored at 25° C./60% RH),HPLC purity (%) after 7 days (stored at 40° C./75% RH) [%],Observations after 7 days (stored at 40° C./75% RH),PXRD after 7 days (stored at 40° C./75% RH),HPLC purity (%) after 7 days (stored at 80° C.) [%],Observations after 7 days (stored at 80° C.),PXRD after 7 days (stored at 80° C.),HPLC purity (%) after 7 days (stored at Ambient) [%],Observations after 7 days (stored at Ambient),PXRD after 7 days (stored at Ambient)
"Nc1nccc(Sc2cnc(N3CCC4(CC3)Cc3ccccc3[C@H]4N)nn2)c1Cl [Amorphous, (S)-1′-(6-((2-amino-3-chloropyridin-4-yl)thio)-1,2,4-triazin-3-yl)-1,3-dihydrospiro[indene-2,4′-piperidin]-1-amine]",82.8,Vibrant,Amorphous,86.7,Vibrant,Amorphous,54.7,Brown,Amorphous,71.7,Vibrant,Amorphous
"Nc1nccc(Sc2cnc(N3CCC4(CC3)Cc3ccccc3[C@H]4N)nn2)c1Cl [Form 1, (S)-1′-(6-((2-amino-3-chloropyridin-4-yl)thio)-1,2,4-triazin-3-yl)-1,3-dihydrospiro[indene-2,4′-piperidin]-1-amine]",97.5,Yellow,Form 1,97.6,Yellow,Form 1,97.1,Yellow,Form 1,97.1,Yellow,Form 1
